{"source": "patent EP0301861A1", "about": "“Cell proliferation inhibitors” (Takeda Chemical Industries, Ltd., priority 1987, dated 1989)", "key": {"[1]": {"system": "human umbilical venous endothelial cells", "test": "Inhibition of proliferation of human umbilical venous endothelial cells (MTT)", "type": "cell-based", "conditions": "Endothelial cell, 72 h, rFGF 2 ng/ml, 3 days of incubation, OD₅₉₀, read-out: IC₅₀", "procedure": "Experiment 3 [Evaluation of inhibition of proliferation of human umbilical venous endothelial cells]\nThe human vascular endothelial cells were obtained by subculture of the cells, which had been obtained from human umbilical vein by perfusion with tripsin solution, in the culture medium which had been prepared by addition of 2.5% bovine fetal serum and 2.0 ng/ml of human recombinant fibroblast growth factor (abbreviated as rFGF hereinafter; prepared in Biotechnology Institute of our company) to GIT medium (Daigo Eiyou Kagaku).\nA hundred µl of the suspension of 2 x 10³ human vascular endothelial cells was introduced to a 96-well culture plate (Nunc, 1-67008) and incubated in a gas-controlled thermostat. On the next day rFGF and 100 µl of a medium containing different concentrations of the test substance were added, so that the final concentration of rFGF might be 2 ng/ml. The test substance was dissolved in dimethylsufoxide (DMSO hereinafter) solution, and the resultant solution was diluted so that the final DMSO concentration might be 0.25% or less. After 3 days of incubation, the culture medium containing the test substance was aspirated off, 100 µl of 1 mg/ml MTT solution (3-(4,5-dimethyl-2-thiazolyl)-2,5-diphenyl-2H-tetrazolium bromide dissolved in the culture medium) was added, and the mixture was kept warm for 4 hours. Then 100 µl of 10% SDS solution (aqueous solution of sodium dodecylsulfate) was added and kept warm for 5 - 6 hours, so that the cells and MTT pigment were solubilized, and the OD₅₉₀ value was determined by spectrophotometer. The OD value of the control sample containing no test substance was taken as 100%, and the endothelial cell growth-inhibitory activity of the test substance was compared on the basis of the IC₅₀ value, the concentration of a compound at which 50% OD value is observed."}, "[2]": {"molecular_target": "T1, 5-lipoxygenase from guinea pig polymorphonuclear leukocytes (Cavia porcellus, UniProt A0A286X958)", "T1 construct": "from guinea pig peritoneal macrophage; from tissue", "T1 sequence (A0A286X958 1-674)": "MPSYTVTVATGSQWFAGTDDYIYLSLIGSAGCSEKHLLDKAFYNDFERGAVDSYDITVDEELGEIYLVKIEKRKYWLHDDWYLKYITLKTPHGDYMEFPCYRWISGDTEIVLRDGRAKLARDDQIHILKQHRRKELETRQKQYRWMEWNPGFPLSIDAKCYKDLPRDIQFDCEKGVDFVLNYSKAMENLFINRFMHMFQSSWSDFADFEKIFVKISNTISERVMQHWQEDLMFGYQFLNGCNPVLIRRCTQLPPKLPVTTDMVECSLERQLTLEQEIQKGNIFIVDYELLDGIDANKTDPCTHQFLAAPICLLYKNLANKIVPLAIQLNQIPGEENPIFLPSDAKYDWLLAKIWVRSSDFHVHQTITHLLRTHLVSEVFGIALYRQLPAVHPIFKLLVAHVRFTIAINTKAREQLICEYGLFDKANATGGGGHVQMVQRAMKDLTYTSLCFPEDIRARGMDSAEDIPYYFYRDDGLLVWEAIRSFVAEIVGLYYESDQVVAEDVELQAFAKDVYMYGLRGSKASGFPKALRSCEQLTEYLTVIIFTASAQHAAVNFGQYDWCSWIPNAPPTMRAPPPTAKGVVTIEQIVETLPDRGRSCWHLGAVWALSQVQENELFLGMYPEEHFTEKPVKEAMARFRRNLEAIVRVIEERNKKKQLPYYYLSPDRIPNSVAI", "test": "Inhibition of 5-lipoxygenase", "type": "biochemical", "conditions": "10⁻⁵ M; 25µM [1-¹⁴C]arachidonic acid as substrate, 25°C", "procedure": "According to the routine method these ingredients were mixed and compressed by a tableting machine. Experiment 1 [Inhibition (10⁻⁵ M) of 5-lipoxygenase from guinea pig polymorphonuclear leukocytes]\n5-Lipoxygenase used was the enzyme preparation prepared from guinea pig […]. For determination of the activity of lypoxygenase 25µM [1-¹⁴C]arachidonic acid (5 x 10⁴ cpm) as the substrate, 50 mM phosphate buffer solution (pH 7.4), 2 mM CaCl₂, 2 mM ATP, and a reaction mixture containing the enzyme (200µl) were used. After preincubation at 25°C for 2 minutes, [1-¹⁴C]arachidonic acid (5 x 10⁴ cpm) was added, and allowed to react at 25°C for 3 minutes; the resultant mixture was made acidic, and arachidonic acid and its metabolites were extracted with ether. Radioactivity of the ether layer was determined by silica gel thin layer chromatography using a mixture of petroleum ether:ethylether:acetic acid (15:85:0.1) as the eluant and the elution was performed at -10°C. After elution, the thin layer plate was subjected to autoradiography, the radioactive fractions were scraped out, and the radioactivity of the product was determined by counting. The agent was added two minutes before the beginning of the reaction."}, "[3]": {"system": "IL-2-dependent cells (NKC-3)", "test": "Inhibition of growth of IL-2-dependent cells (NKC-3) (MTT)", "type": "cell-based", "conditions": "NKC-3 cells with IL-2, 37°C for 20 hours, absorbance at 590 nm, read-out: IC₅₀", "procedure": "Experiment 4 [Evaluation of inhibition of growth of IL-2-dependent cells (NKC-3)]\nTo each well of a 96-well microplate, 50 µl of NKC-3 cells (4 x 10⁵ cells/well), 20 µl of IL-2 solution (0.067 U/ml), and 40 µl of the test substance (DMSO solution) were added, which was incubated at 37°C for 20 hours (culture medium: RPMI1640-20%ECS). To each well 20 µl of MTT solution was added,which was kept at 37°C for 4 hours. Then 100 µl of 10% SDS solution was added to each well, which was kept still at 37°C overnight so that the cells and MTT pigment were solubilized, and the absorbance at 590 nm was measured by spectrophotometer. […] Compound No. IC₅₀ (M) 5 4.1 x 10⁻⁵"}}, "data": [{"smiles": "CC1=C(C)C(=O)C(C(CCC(=O)NO)c2ccccc2)=C(C)C1=O", "note": "(stereo not shown) [Compound No.1]", "values": [{"measurement": "IC50", "setting": "[1]", "result": 10, "unit": "µg/mL"}]}, {"smiles": "CC1=C(C)C(=O)C(C(CCCCCC(=O)NO)c2ccccc2)=C(C)C1=O", "note": "(stereo not shown) [Compound No.5]", "values": [{"measurement": "Inhibitory activity (%)", "setting": "[2]", "result": 74.6, "unit": "%"}, {"measurement": "IC50", "setting": "[1]", "result": 0.63, "unit": "µg/mL"}, {"measurement": "IC50", "setting": "[3]", "result": 41, "unit": "µM"}]}, {"smiles": "CC1=C(C)C(=O)C(C(CCCCCC(=O)NO)c2ccc(F)cc2)=C(C)C1=O", "note": "(stereo not shown) [Compound No.6, 7-(4-fluorophenyl)-7-(3,5,6-trimethyl-1,4-benzoquinon-2-yl)-heptanohydroxamic acid]", "values": [{"measurement": "Inhibitory activity (%)", "setting": "[2]", "result": 79.3, "unit": "%"}, {"measurement": "IC50", "setting": "[1]", "result": 1.25, "unit": "µg/mL"}]}, {"smiles": "COc1ccc(C(CCCCCC(=O)NO)C2=C(C)C(=O)C(C)=C(C)C2=O)cc1", "note": "(stereo not shown) [Compound No.8, 7-(4-methoxyphenyl)-7-(3,5,6-trimethyl-1,4-benzoquinon-2-yl)-heptanohydroxamic acid]", "values": [{"measurement": "Inhibitory activity (%)", "setting": "[2]", "result": 83.8, "unit": "%"}, {"measurement": "IC50", "setting": "[1]", "result": 0.63, "unit": "µg/mL"}]}, {"smiles": "CC1=C(C(CCCCC(=O)NO)c2cccs2)C(=O)c2ccccc2C1=O", "note": "(stereo not shown) [Compound No.13]", "values": [{"measurement": "IC50", "setting": "[1]", "result": "< 0.08", "unit": "µg/mL"}]}, {"smiles": "CC1=C(C)C(=O)C(C(CCCCC(=O)NO)c2ccccc2)=C(C)C1=O", "note": "(stereo not shown) [compound 2]", "values": [{"measurement": "IC50", "setting": "[1]", "result": 0.63, "unit": "µg/mL"}]}, {"smiles": "CC1=C(C)C(=O)C(C(CCCCC(=O)NO)c2ccc(F)cc2)=C(C)C1=O", "note": "(stereo not shown) [compound 3]", "values": [{"measurement": "IC50", "setting": "[1]", "result": 1.25, "unit": "µg/mL"}]}, {"smiles": "COc1ccc(C(CCCCC(=O)NO)C2=C(C)C(=O)C(C)=C(C)C2=O)cc1", "note": "(stereo not shown) [compound 4]", "values": [{"measurement": "IC50", "setting": "[1]", "result": 0.63, "unit": "µg/mL"}]}, {"smiles": "CC1=C(C)C(=O)C(C(CCCCCC(=O)NO)c2ccc(C)cc2)=C(C)C1=O", "note": "(stereo not shown) [compound 7]", "values": [{"measurement": "IC50", "setting": "[1]", "result": 1.25, "unit": "µg/mL"}]}, {"smiles": "CC1=C(C)C(=O)C(C(CCCCCC(=O)NO)c2ccc(Cl)cc2)=C(C)C1=O", "note": "(stereo not shown) [compound 9]", "values": [{"measurement": "IC50", "setting": "[1]", "result": 1.25, "unit": "µg/mL"}]}, {"smiles": "CC1=C(C)C(=O)C(C(CCCCCCC(=O)NO)c2ccccc2)=C(C)C1=O", "note": "(stereo not shown) [compound 10]", "values": [{"measurement": "IC50", "setting": "[1]", "result": 25, "unit": "µg/mL"}]}, {"smiles": "CC1=C(C(CCCC(=O)NO)c2ccccc2)C(=O)c2ccccc2C1=O", "note": "(stereo not shown) [compound 11]", "values": [{"measurement": "IC50", "setting": "[1]", "result": 5, "unit": "µg/mL"}]}, {"smiles": "CC1=C(C(CCCCC(=O)NO)c2ccccc2)C(=O)c2ccccc2C1=O", "note": "(stereo not shown) [compound 12]", "values": [{"measurement": "IC50", "setting": "[1]", "result": 0.08, "unit": "µg/mL"}]}, {"smiles": "CC1=C(C(CCCCCC(=O)NO)c2ccc(F)cc2)C(=O)c2ccccc2C1=O", "note": "(stereo not shown) [compound 14]", "values": [{"measurement": "Inhibitory activity (%)", "setting": "[2]", "result": 89.7, "unit": "%"}, {"measurement": "IC50", "setting": "[1]", "result": "< 0.63", "unit": "µg/mL"}]}, {"smiles": "CC1=C(C(CCCCCCC(=O)NO)c2ccccc2)C(=O)c2ccccc2C1=O", "note": "(stereo not shown) [compound 15]", "values": [{"measurement": "IC50", "setting": "[1]", "result": "< 0.63", "unit": "µg/mL"}]}, {"smiles": "COC1=C(OC)C(=O)C(C(CCCCCC(=O)NO)c2ccccc2)=C(C)C1=O", "note": "(stereo not shown) [compound 16]", "values": [{"measurement": "IC50", "setting": "[1]", "result": 1.25, "unit": "µg/mL"}]}, {"smiles": "COC1=C(OC)C(=O)C(C(CCCC(=O)NO)c2ccccc2)=C(C)C1=O", "note": "(stereo not shown) [compound 17]", "values": [{"measurement": "IC50", "setting": "[1]", "result": 20, "unit": "µg/mL"}]}]}
